Assay results: ChEMBL document CHEMBL3600350, “Peptide HIV fusion inhibitors: modifications and conjugations” (Medchemcomm, 2014)
Numbered stars: 1 amine (or outer) side, 2 acyl side, 3 side chain; on linkers, the order of the positions; unused ones are H or OH. Square brackets hold non-standard residues; d marks the D form. Peptide text beside a SMILES is read from it. X1 = CCCCCCCCCCCCCCCC(=O)NC(=O)CC[C@H](N[*:1])C(=O)[*:2]

Experiments:
[1] = test system: Human immunodeficiency virus 1; assay: Antiviral activity against HIV-1 HXB2 assessed as inhibition of viral infection in human TZM-bl cells after 18 hrs by steady-glo luciferase reporter gene assay; assay type: functional, organism-based; details: Human immunodeficiency virus 1, HXB2, TZM-bl
[2] = Inhibition of HIV-1 HXBc2 env-mediated cell fusion between viral infected human Jurkat cells and non infected human Jurkat E6-1 cells after 6 hrs by DiI/DiD probe-based flow cytometric analysis; details: Human immunodeficiency virus 1, HXBc2, Jurkat
[3] = test system: Human immunodeficiency virus 1; assay: Antiviral activity against HIV-1 HXB2 assessed as inhibition of viral fusion with human TZM-bl cells after 6 hrs by luciferase reporter gene assay; assay type: functional, organism-based; details: Human immunodeficiency virus 1, HXB2, TZM-bl

CCCCCCCCCCCCCCCC(O)C(CO)NC(=O)N[C@@H](CC(C)C)C(=O)N[C@@H](CC(C)C)C(=O)N[C@@H](CCC(N)=O)C(=O)N[C@@H](CC(C)C)C(=O)N[C@H](C(=O)N[C@H](C(=O)N[C@@H](Cc1c[nH]c2ccccc12)C(=O)NCC(=O)N[C@H](C(=O)N[C@@H](CCCCN)C(=O)N[C@@H](CCC(N)=O)C(=O)N[C@@H](CC(C)C)C(=O)N[C@@H](CCC(N)=O)C(=O)N[C@@H](C)C(=O)N[C@@H](CCCNC(=N)N)C(=O)N[C@H](C(=O)N[C@@H](CC(C)C)C(=O)O)[C@@H](C)CC)[C@@H](C)CC)C(C)C)[C@H](C)O (some centres undefined)
IC50 [1]: 121 nM

CCCCCCCCCCCCCCCC(O)C(CO)NCNC(=O)[C@@H](CCCCN)NC(=O)[C@H](CC(C)C)NC(=O)[C@@H](NC(=O)[C@H](CCCNC(=N)N)NC(=O)[C@H](C)NC(=O)[C@H](CCC(N)=O)NC(=O)[C@H](CC(C)C)NC(=O)[C@H](CCC(N)=O)NC(=O)[C@H](CCCCN)NC(=O)[C@@H](NC(=O)CNC(=O)[C@H](Cc1c[nH]c2ccccc12)NC(=O)[C@@H](NC(=O)[C@@H](NC(=O)[C@H](CC(C)C)NC(=O)[C@H](CCC(N)=O)NC(=O)[C@H](CC(C)C)NC(=O)[C@@H](N)CC(C)C)[C@H](C)O)C(C)C)[C@@H](C)CC)[C@@H](C)CC (some centres undefined)
IC50 [1]: 287 nM

H-LLSGIVQQQNNLLRAIEAQQHLLQ-OH
IC50 [2]: 338 nM

H-YTSLIHSLIEESQNQQEKNEQELLE-OH
IC50 [3]: 2860 nM

CCCCCCCCCCCCCCCC(=O)NC(=O)CC[C@H](N)C(=O)N[C@@H](CC(C)C)C(=O)N[C@@H](CC(C)C)C(=O)N[C@@H](CO)C(=O)NCC(=O)N[C@H](C(=O)N[C@H](C(=O)N[C@@H](CCC(N)=O)C(=O)N[C@@H](CCC(N)=O)C(=O)N[C@@H](CCC(N)=O)C(=O)N[C@@H](CC(N)=O)C(=O)N[C@@H](CC(N)=O)C(=O)N[C@@H](CC(C)C)C(=O)N[C@@H](CC(C)C)C(=O)N[C@@H](CCCNC(=N)N)C(=O)N[C@@H](C)C(=O)N[C@H](C(=O)N[C@@H](CCC(=O)O)C(=O)N[C@@H](C)C(=O)N[C@@H](CCC(N)=O)C(=O)N[C@@H](CCC(N)=O)C(=O)N[C@@H](Cc1c[nH]cn1)C(=O)N[C@@H](CC(C)C)C(=O)N[C@@H](CC(C)C)C(=O)N[C@@H](CCC(N)=O)C(=O)O)[C@@H](C)CC)C(C)C)[C@@H](C)CC (H-[X1]LLSGIVQQQNNLLRAIEAQQHLLQ-OH)
IC50 [2]: 10 nM

CCCCCCCCCCCCCCCC(=O)[C@H](CCCCN)NC(=O)[C@H](CCC(=O)O)NC(=O)[C@H](CC(C)C)NC(=O)[C@H](CC(C)C)NC(=O)[C@H](CCC(=O)O)NC(=O)[C@H](CCC(N)=O)NC(=O)[C@H](CCC(=O)O)NC(=O)[C@H](CC(N)=O)NC(=O)[C@H](CCCCN)NC(=O)[C@H](CCC(=O)O)NC(=O)[C@H](CCC(N)=O)NC(=O)[C@H](CCC(N)=O)NC(=O)[C@H](CC(N)=O)NC(=O)[C@H](CCC(N)=O)NC(=O)[C@H](CO)NC(=O)[C@H](CCC(=O)O)NC(=O)[C@H](CCC(=O)O)NC(=O)[C@@H](NC(=O)[C@H](CC(C)C)NC(=O)[C@H](CO)NC(=O)[C@H](Cc1c[nH]cn1)NC(=O)[C@@H](NC(=O)[C@H](CC(C)C)NC(=O)[C@H](CO)NC(=O)[C@@H](NC(=O)[C@@H](N)Cc1ccc(O)cc1)[C@H](C)O)[C@@H](C)CC)[C@@H](C)CC
IC50 [3]: 1.3 nM

CCCCCCCCCCCCCCCC(O)C(CO)NC(=O)NC(=O)[C@H](CCCCN)NC(=O)[C@H](CC(N)=O)NC(=O)[C@H](CCCCN)NC(=O)[C@H](CCC(=O)O)NC(=O)[C@H](CCC(N)=O)NC(=O)[C@H](CCC(N)=O)NC(=O)[C@H](CC(N)=O)NC(=O)[C@H](CCC(N)=O)NC(=O)[C@H](CO)NC(=O)[C@H](CCC(=O)O)NC(=O)[C@H](CCC(=O)O)NC(=O)[C@@H](NC(=O)[C@H](CC(C)C)NC(=O)[C@H](CO)NC(=O)[C@H](Cc1c[nH]cn1)NC(=O)[C@@H](NC(=O)[C@H](CC(C)C)NC(=O)[C@H](CO)NC(=O)[C@@H](NC(=O)[C@@H](N)Cc1ccc(O)cc1)[C@H](C)O)[C@@H](C)CC)[C@@H](C)CC (some centres undefined)
IC50 [1]: 350 nM

CC[C@H](C)[C@H](NC(=O)[C@H](CC(C)C)NC(=O)[C@H](CO)NC(=O)[C@H](Cc1c[nH]cn1)NC(=O)[C@@H](NC(=O)[C@H](CC(C)C)NC(=O)[C@H](CO)NC(=O)[C@@H](NC(=O)[C@@H](N)Cc1ccc(O)cc1)[C@H](C)O)[C@@H](C)CC)C(=O)N[C@@H](CCC(=O)O)C(=O)N[C@@H](CCC(=O)O)C(=O)N[C@@H](CO)C(=O)N[C@@H](CCC(N)=O)C(=O)N[C@@H](CC(N)=O)C(=O)N[C@@H](CCC(N)=O)C(=O)N[C@@H](CCC(N)=O)C(=O)N[C@@H](CCC(=O)O)C(=O)N[C@@H](CCCCN)C(=O)N[C@@H](CC(N)=O)C(=O)N[C@@H](CCCCN)C(=O)O
IC50 [1]: > 4000 nM

CC[C@H](C)[C@H](NC(=O)CNC(=O)[C@H](Cc1c[nH]c2ccccc12)NC(=O)[C@@H](NC(=O)[C@@H](NC(=O)[C@H](CC(C)C)NC(=O)[C@H](CCC(N)=O)NC(=O)[C@H](CC(C)C)NC(=O)[C@@H](N)CC(C)C)[C@H](C)O)C(C)C)C(=O)N[C@@H](CCCCN)C(=O)N[C@@H](CCC(N)=O)C(=O)N[C@@H](CC(C)C)C(=O)N[C@@H](CCC(N)=O)C(=O)N[C@@H](C)C(=O)N[C@@H](CCCNC(=N)N)C(=O)N[C@H](C(=O)N[C@@H](CC(C)C)C(=O)O)[C@@H](C)CC
IC50 [1]: > 4000 nM
